Laboratory results reported in patent US11179401B2, “Use of vanadium compounds for maintaining normaglycemia in a mammal” (CFM Pharma Holding BV, priority 2011, dated 2021).

Columns and labels:
male Wistar rats = experiment: Renal ischemia-reperfusion (I/R) in anesthetized rats with BMOV infusion; format: in vivo, rat
Experimental: Thirty two male Wistar rats (Harlan Netherlands BV, Horst, The Netherlands) with a mean body weight of 280±30 grams were used in this study. The animals were quarantined prior to start of the investigation for 1 week to permit acclimatization to their new environment and were housed in pairs in conventional cages in a light-controlled room kept at 22±1° C. with a relative humidity of 55±10%. All animals received standard laboratory rat chow and water for consumption ad libitum.
All animals were initially anesthetized with a mixture of ketamine (Nimatek, Eurovet Animal Health BV, Bladel, The Netherlands; 90 mg/kg), dexmedetomidine (Dexdomitor, Pfizer Animal Health BV, Capelle aan den IJssel, The Netherlands; 0.5 mg/kg), and atropine sulfate (Centrafarm BV, Etten-Leur, The Netherlands; 0.05 mg/kg) by intraperitoneal injection. Once anesthetized, the area between the thoracic manubrium and chin and the left flank covering the left kidney were shaved and cleaned prior to initiating the surgical procedure. During the remainder of the surgical preparation and experimental procedures, anesthesia was maintained via tracheotomy and mechanical ventilation with an inspired oxygen fraction (FiO2) of 0.4. Body temperature was maintained at 37±0.5° C. during the entire experiment. The ventilator settings were adjusted to maintain an arterial pCO2 between 35 and 40 MmHg.
For drug and fluid administration and hemodynamic monitoring, three vessels were cannulated with polyethylene catheters (outer diameter=0.9 mm; Braun, Melsungen, Germany). A catheter in the right carotid artery was connected to a pressure transducer to monitor arterial blood pressure and heart rate. The right jugular vein was cannulated for continuous infusion of Ringer's lactate (Baxter, Utrecht, The Netherlands) at a rate of 15 ml/kg/hr. The femoral artery was cannulated for withdrawing blood samples for blood gas analysis. Animals were kept under general anesthesia during all experiments and received continuous intravenous diluted ketamine or analgesic drug infusions. The left kidney was exposed, decapsulated, and immobilized in a Lucite (i.e. poly (methyl methacrylate); PMMA) custom made kidney cup via a ˜4 cm incision on the left flank. The renal artery and vein were carefully separated to preserve the surrounding nerves and adrenal gland. A perivascular ultrasonic transient time flow probe (type 0.7 RB; Transonic Systems, Ithaca, N.Y., USA) was placed around the left renal artery and connected to a flow meter (T206; Transonic Systems, Ithaca, N.Y., USA) to allow continuous measurement of renal blood flow (RBF). The left ureter was isolated, ligated, and cannulated with a polyethylene catheter (outer diameter=0.9 mm; Braun, Melsungen, Germany) for urine collection. A small piece of aluminum foil (10×10 mm) was placed on the dorsal site of the renal vein to prevent contribution of juxtaposed and underlying tissues from interfering with the phosphorescence signal in the venous pO2 measurement. After the surgical protocol (˜60 min), one optical fiber was placed 1 mm above the decapsulated kidney and another optical fiber 1 mm above the renal vein to measure oxygenation using a phosphorescence lifetime technique (20). Oxyphor G2 (Oxygen Enterprises, Philadelphia, Pa., USA; 6 mg/kg) was subsequently infused intravenously for 5 min, followed by 30 min of stabilization time.
The operation field was covered with a humidified gauze compress throughout the entire experiment to prevent drying of the exposed tissues in the surgical field. The phosphorescence lifetime measurements have been described in more details elsewhere (20). The experiment was terminated by infusion of 1 ml of 3 M potassium chloride. Finally, the kidney was removed, weighed, and processed for histological evaluation. The correct placements of the catheters were also checked postmortem. […]

critically ill patients = details: intensive insulin therapy, cited from earlier work
[1] = BMOV 7 and 15 mg/kg infusion, 30 min ischemia, 90 min reperfusion, effect not dose-dependent
[2] = high dose BMOV (15 mg/kg) compared to low dose (7 mg/kg)
[3] = kidney immunohistochemistry after 30 min ischemia, 90 min reperfusion, vs I/R control, dose-dependent

Molecule	mean arterial pressure (male Wistar rats; [1])	microvascular oxygenation in the renal cortex (male Wistar rats; [1])	microvascular oxygenation in the renal medulla (male Wistar rats; [1])	renal blood flow (male Wistar rats; [1])	renal oxygen delivery (male Wistar rats; [1])	renal oxygen utilization efficiency (VO2/Tna+) (male Wistar rats; [1])	renal hemodynamics (male Wistar rats; FIG. 2, 30 min ischemia, 90 min reperfusion)	NGAL levels (male Wistar rats; [2])	iNOS expression (male Wistar rats; [2])	inflammatory activation (IL-6, iNOS expression, MPO-stained leukocytes) (male Wistar rats; [3])	renal injury (biomarkers NGAL, L-FABP) (male Wistar rats; [3])	overall ICU mortality (critically ill patients; reduced from 8%) [%]	ICU mortality among patients requiring more than five days intensive care (critically ill patients; reduced from 20.2%) [%]
Cc1occc(=O)c1[O-].Cc1occc(=O)c1[O-].[O]=[V+2] [BMOV, bis(maltolato)oxovanadium(IV)]	did not affect	significantly increased	significantly increased	did not affect	did not affect	increased	did not affect	significantly lower	significantly lower	significantly decreased	significantly decreased		
insulin: intensive insulin therapy in critically ill ICU patients, literature												4.6	10.6
